Here are results for one molecule from patent US9714433B2, “Human pluripotent stem cells induced from undifferentiated stem cells derived from a human postnatal tissue” (Kyoto University, priority 2007, dated 2017).

The test system of test [1] is cells derived from mouse bone marrow. The experiment in a line: Induction of mouse pluripotent stem cells by three gene introduction and MS-275 treatment (colony formation, alkaline phosphatase staining). It counts as cell-based. The protocol:
Staining for confirming alkaline phosphatase activity which is a characteristic of pluripotent stem cells was conducted in the following manner. After removing the culture medium, a 10% formalin neutral buffer solution was added to wells, and cells were fixed at room temperature for 5 minutes. After washing with a phosphate buffer etc., a chromogenic substrate of alkaline phosphatase, 1 step NBT/BCIP (manufactured by Pierce) was added and reacted at room temperature for 20 to 30 minutes. Cells having alkaline phosphatase activity were all stained blue violet.
The primary culture cells derived from mouse bone marrow containing undifferentiated stem cells that had been stored frozen after preparing in a manner similar to Example 11 were plated at a concentration of 5×10^3 cells/cm^2 on a 24-well plastic plate (manufactured by Becton Dickinson) having the bottom which had been gelatin-coated with a 0.1% gelatin/phosphate buffer, and 2 ml each of the MAPC medium was added.
Eight hours later, the medium was removed, 2 ml each of the three gene (human Oct3/4, Sox2 and Klf4) retrovirus vector solution prepared as in Example 1 were added, and after further adding MS-275, a histone deacetylase inhibitor, at a final concentration of 1 or 0.1 μM, they were cultured at 37° C. for 14 hours. […]

The subject of another test is syngeneic C57BL/6N mice. The experiment in a line: Teratoma formation of induced mouse pluripotent stem cells transplanted subcutaneously. It is filed as in vivo. The conditions noted are these: cells induced by three genes + MS-275; 2×10^7 cells/mouse subcutaneously; 34 days later; three germ layers observed. The protocol:
From the extracted teratoma, slices were prepared, and differentiation potential into three germ layers was analyzed by immunological and histological staining (HE stain, alcian blue stain). As a result, GFAP-positive cells (the nervous system) and keratin producing cells (skin cells) as the ectodermic system, smooth muscle actin-positive cells (smooth muscle cells), bone tissues and cartilage tissues as the mesodermic system, and intestinal tract tissues (endodermal epithelium positive for MUC-1) as the endodermic system were observed.

The test system of a further test is mouse Nanog. The experiment in a line: Nanog expression of colonies by quantitative PCR. As to conditions: three genes + MS-275 0.1 or 1.0 μM; compared with alkaline phosphatase-negative colonies; FIG. 3. It counts as cell-based. The protocol: The expression of target gene of each colony including an alkaline phosphatase-positive colonies was determined using quantitative PCR in the following manner. Colonies developed by the induction of pluripotent stem cells were harvested, and RNA was extracted using the Recoverall total nucleic acid isolation kit for FFPE (manufactured by Ambion). After synthesizing cDNA from the extracted RNA, the target gene was amplified using the Taqman Preamp mastermix (manufactured by Applied Biosystems). As the primers for quantitative PCR, the Taqman gene exprESsion assay (manufactured by Applied Biosystems) was used. […] Human Hprt: Hs99999909_m1, human Nanog: Hs02387400_g1, human Tert: Hs00162669_m1, Mouse Hprt: Mm01545399_m1, mouse Nanog: Ma02019550_s1. Then, the amount expressed of the Nanog gene was confirmed by quantitative PCR, and the expression of mouse Nanog of colonies of pluripotent stem cells having alkaline phosphatase activity was confirmed (FIG. 3).

Take `Nc1ccccc1NC(=O)c1ccc(CNC(=O)OCc2cccnc2)cc1` [MS-275, N-(2-aminophenyl)-4-[N-(pyridine-3-yl-methoxycarbonyl)aminomethyl]benzamide]: in test [1] (three genes (human Oct3/4, Sox2, Klf4) retrovirus + MS-275 1 or 0.1 μM, fifteen days after), the “formation of pluripotent stem cell colonies” value was “formed colonies composed of mouse ES cell-like small cells”. Also, in test [1] (three genes + MS-275 1 or 0.1 μM), the “alkaline phosphatase activity staining of colonies” value is “stained blue violet by alkaline phosphatase activity”. In addition, the teratoma formation entry in the test on syngeneic C57BL/6N mice is “teratoma that formed was extracted”. For the same molecule, in the test with mouse Nanog, the “expression of Nanog in alkaline phosphatase-positive colonies” value is on record as “significantly higher than the alkaline phosphatase-negative colonies”.
